Results taken from ChEMBL document CHEMBL1141582, “Multi-target-directed coumarin derivatives: hAChE and BACE1 inhibitors as potential anti-Alzheimer compounds” (Bioorg Med Chem Lett, 2008).

Columns and labels:
[1] = target: Acetylcholinesterase (Homo sapiens, UniProt P22303); assay: Inhibition of human recombinant AChE by Ellman method
[2] = target: Beta-secretase 1 (Homo sapiens, UniProt P56817); assay: Inhibition of human recombinant BACE1 by spectrofluorimetric method
Sequence of Beta-secretase 1 (P56817 whole entry): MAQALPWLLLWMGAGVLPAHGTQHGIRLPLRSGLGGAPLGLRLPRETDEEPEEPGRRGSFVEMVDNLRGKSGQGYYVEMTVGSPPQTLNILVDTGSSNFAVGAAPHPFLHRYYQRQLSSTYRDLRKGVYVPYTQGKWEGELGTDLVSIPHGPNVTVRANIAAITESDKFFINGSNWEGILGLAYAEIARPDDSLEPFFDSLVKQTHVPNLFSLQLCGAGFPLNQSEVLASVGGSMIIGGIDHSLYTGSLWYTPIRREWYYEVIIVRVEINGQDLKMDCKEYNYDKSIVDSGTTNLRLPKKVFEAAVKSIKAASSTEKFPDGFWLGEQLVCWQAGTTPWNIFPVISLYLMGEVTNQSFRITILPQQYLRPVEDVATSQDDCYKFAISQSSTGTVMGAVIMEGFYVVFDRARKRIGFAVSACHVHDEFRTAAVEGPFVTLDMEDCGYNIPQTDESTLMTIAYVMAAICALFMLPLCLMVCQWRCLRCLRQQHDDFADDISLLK

Sequence of Acetylcholinesterase (P22303 whole entry): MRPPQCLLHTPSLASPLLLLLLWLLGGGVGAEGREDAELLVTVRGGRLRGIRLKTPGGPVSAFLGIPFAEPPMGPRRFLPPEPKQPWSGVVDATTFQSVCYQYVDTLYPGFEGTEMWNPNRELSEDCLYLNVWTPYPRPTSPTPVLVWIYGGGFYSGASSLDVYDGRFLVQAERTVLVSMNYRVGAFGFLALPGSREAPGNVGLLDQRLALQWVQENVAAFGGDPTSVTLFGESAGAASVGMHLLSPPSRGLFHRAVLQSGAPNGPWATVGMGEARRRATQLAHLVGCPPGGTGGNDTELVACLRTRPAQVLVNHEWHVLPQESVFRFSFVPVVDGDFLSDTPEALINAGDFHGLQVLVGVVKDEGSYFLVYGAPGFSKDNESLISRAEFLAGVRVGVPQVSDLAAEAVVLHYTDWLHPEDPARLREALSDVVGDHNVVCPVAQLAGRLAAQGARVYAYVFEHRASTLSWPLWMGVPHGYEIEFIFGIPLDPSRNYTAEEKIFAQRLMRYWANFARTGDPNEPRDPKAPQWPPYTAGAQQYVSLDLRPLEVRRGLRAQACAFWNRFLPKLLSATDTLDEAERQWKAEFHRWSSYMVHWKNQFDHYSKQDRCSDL

| SMILES | IC50 [1] [µM] | IC50 [2] [nM] |
| --- | --- | --- |
| CCN(Cc1ccccc1)Cc1ccc(-c2cc3cc(OCCNC(=O)/C=C/c4cc(F)cc(F)c4)ccc3oc2=O)cc1 | 7.16 | 99 |
| CCN(Cc1ccccc1)Cc1ccc(-c2cc3cc(OCCNC(=O)CCc4ccc(F)c(F)c4)ccc3oc2=O)cc1 | 2.77 | 116 |
| CCN(Cc1ccccc1)Cc1ccc(-c2cc3ccc(OCCNC(=O)Cc4cc(F)cc(F)c4)cc3oc2=O)cc1 | 0.181 | 150 |
| CCN(Cc1ccccc1)Cc1ccc(-c2cc3ccc(OCCNC(=O)/C=C/c4ccc(Cl)c(Cl)c4)cc3oc2=O)cc1 | 4.23 | 151 |
| CCN(Cc1ccccc1)Cc1ccc(-c2cc3ccc(OCCNC(=O)/C=C/c4cc(F)cc(F)c4)cc3oc2=O)cc1 | 4.57 | 121 |
| CCN(Cc1ccccc1)Cc1ccc(-c2cc3ccc(OCCNC(=O)CCc4ccc(F)c(F)c4)cc3oc2=O)cc1 | 0.327 | 114 |
| CCN(Cc1ccccc1)Cc1ccc(-c2cc3cc(OCCNC(=O)Cc4cc(F)cc(F)c4)ccc3oc2=O)cc1 | 0.551 | 149 |
| CCN(Cc1ccccc1)Cc1ccc(-c2cc3cc(OCCNC(=O)/C=C/c4ccc(Cl)c(Cl)c4)ccc3oc2=O)cc1 | 267 | 133 |
